The nature of data set [1]: Cytotoxicity determination in HepG2.2.15 cells (CCK-8). The following applies: human, 6 days of compound treatment, CCK-8, highest concentration 100 μM. It is filed as cell-based. An outline of the steps: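 CC50 is from CCK-8 absorbance (450 nm, 630 nm reference) after 2.5 h with reagent. Before that, compounds were applied for six days, top concentration 100 μM, eight threefold dilutions, one mid-course medium change, to stably HBV-integrated HepG2.2.15 cells plated at 5,000/well in 2% FBS.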

Data set [2] deals with HBV. Briefly: HBV inhibitory activity: HBV DNA in the culture medium of HepG2.2.15 cells by q-PCR. It is filed as cell-based. The following applies: HepG2.2.15 cells, 6 days of compound treatment, HBV DNA in culture medium by q-PCR, highest concentration 10 μM, read-out: EC50. In short, it runs like this: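 Supernatant HBV DNA quantified by q-PCR after a 6-day compound exposure, with one mid-course medium change, of HepG2.2.15 cells (stably integrated HBV; 40,000 per well, 2% FBS). Eight-point 3-fold series topped at 10 μM for antiviral EC50; separate plates of 5,000 cells per well with 100 μM top give CC50.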

Setting [3] is: Hepatitis B virus, HepG2.2.15, 144 h.

Like-named read-outs stand apart in the source and are kept apart here.

In data set [1], `COC(=O)C1=C(C2CN(S(=O)(=O)c3ccccc3)C2)NC(c2nccs2)=NC1c1ccc(F)cc1Cl` (single isomer, unassigned) [Compound 130A, 6-(1-Benzenesulfonyl-azetidin-3-yl)-4-(2-chloro-4-fluoro-phenyl)-2-thiazol-2-yl-1,4-dihydro-pyrimidine-5-carboxylic acid methyl ester] yielded a CC50 at 6 days greater than 10000 nM. The EC50 in data set [2] (setting [3]) came to 317 nM.

`CCOC(=O)C1=C([C@H]2CC[C@H](C(=O)NC)CC2)NC(c2nccs2)=NC1c1ccc(F)cc1Cl` (single isomer, unassigned) [Compound 132A, trans-Ethyl 4-(2-chloro-4-fluorophenyl)-6-(4-(methylcarbamoyl)-cyclohexyl)-2-(thiazol-2-yl)-1,4-dihydropyrimidine-5-carboxylate] registered a CC50 at 6 days in data set [1] of 23900 nM. Moreover, the EC50 in data set [2] (setting [3]) amounted to 472 nM.

Compound `COC(=O)C1=C(C2CCN(S(=O)(=O)C(F)F)CC2)NC(c2nccs2)=NC1c1ccc(F)c(F)c1Cl` (single isomer, unassigned) [Compound 166A, Methyl 4-(2-chloro-3,4-difluorophenyl)-6-(1-((difluoromethyl)sulfonyl)piperidin-4-yl)-2-(thiazol-2-yl)-1,4-dihydropyrimidine-5-carboxylate] displayed a CC50 at 6 days in data set [1] greater than 50000 nM. The EC50 in data set [2] (setting [3]) came out at 61 nM.

In the case of `CNS(=O)(=O)[C@H]1CC[C@H](C2=C(C(=O)OC)C(c3ccc(F)c(F)c3Cl)N=C(c3c(F)cc(F)cc3F)N2)CC1` (single isomer, unassigned) [Compound 167A, methyl 4-(2-chloro-3,4-difluorophenyl)-6-((trans)-4-(N-methylsulfamoyl)cyclohexyl)-2-(2,4,6-trifluorophenyl)-1,4-dihydropyrimidine-5-carboxylate], the cytotoxic concentration (CC50) at 6 days in data set [1] was determined as 11600 nM. Moreover, in data set [2] (setting [3]), the EC50 worked out at 34 nM.

In data set [1], `CNS(=O)(=O)[C@H]1CC[C@H](C2=C(C(=O)OC)C(c3ccc(F)c(F)c3Cl)N=C(c3ncc(F)cc3F)N2)CC1` (single isomer, unassigned) [Compound 168A, methyl 4-(2-chloro-3,4-difluorophenyl)-2-(3,5-difluoropyridin-2-yl)-6-((trans)-4-(N-methylsulfamoyl)cyclohexyl)-1,4-dihydropyrimidine-5-carboxylate] came in with a half-maximal cytotoxic concentration (CC50) at 6 days of 12500 nM. The EC50 in data set [2] (setting [3]) is 6 nM.

In turn, `COC(=O)C1=C([C@H]2CC[C@H](S(=O)(=O)N3CCCC3)CC2)NC(c2nccs2)=NC1c1ccc(F)c(F)c1Cl` (single isomer, unassigned) [Compound 169A, (trans)-Methyl 4-(2-chloro-3,4-difluorophenyl)-6-(4-(pyrrolidin-1-ylsulfonyl)cyclohexyl)-2-(thiazol-2-yl)-1,4-dihydropyrimidine-5-carboxylate] had a CC50 at 6 days in data set [1] greater than 100000 nM. Moreover, the EC50 in data set [2] (setting [3]) came out at 56 nM.

With `COC(=O)C1=C([C@H]2CCC[C@@H](CO)C2)NC(c2nccs2)=NC1c1ccc(F)cc1Cl` (single isomer, unassigned) [Compound 173A, Methyl 4-(2-chloro-4-fluorophenyl)-6-((cis)-3-(hydroxymethyl)cyclohexyl)-2-(thiazol-2-yl)-1,4-dihydropyrimidine-5-carboxylate], in data set [1], the CC50 at 6 days came to 18600 nM. For the same compound, in data set [2] (setting [3]), the 50% effective concentration (EC50) was 76 nM.

In turn, `COC(=O)C1=C([C@H]2CC[C@H](C(=O)OC)CC2)NC(c2ncc(F)cc2F)=NC1c1ccc(F)cc1Cl` (single isomer, unassigned) [Compound 174A, Methyl 4-(2-chloro-4-fluorophenyl)-2-(3,5-difluoropyridin-2-yl)-6-((trans)-4-(methoxycarbonyl)cyclohexyl)-1,4-dihydropyrimidine-5-carboxylate] had a CC50 at 6 days in data set [1] of 19400 nM. The EC50 in data set [2] (setting [3]) was found to be 128 nM.

With `COC(=O)C1=C(C2C[C@@H]3CN(S(C)(=O)=O)C[C@@H]3C2)NC(c2nccs2)=NC1c1ccc(F)cc1Cl` (single isomer, unassigned) [Compound 176A, Methyl 4-(2-chloro-4-fluorophenyl)-6-((cis)-2-(methylsulfonyl)-octahydrocyclopenta[c]pyrrol-5-yl)-2-(thiazol-2-yl)-1,4-dihydropyrimidine-5-carboxylate], in data set [1], the midpoint of cytotoxicity, the CC50 at 6 days, lay at 19900 nM. For the same compound, the EC50 in data set [2] (setting [3]) is 69 nM.

In data set [1], `COC(=O)C1=C([C@H]2CC[C@@H](N(CCO)S(C)(=O)=O)CC2)NC(c2nccs2)=NC1c1ccc(F)cc1Cl` (single isomer, unassigned) [Compound 180B, (cis)-Methyl 4-(2-chloro-4-fluorophenyl)-6-(4-(N-(2-hydroxyethyl)methylsulfonamido)cyclohexyl)-2-(thiazol-2-yl)-1,4-dihydro-pyrimidine-5-carboxylate] came in with a half-maximal cytotoxic concentration (CC50) at 6 days of 22100 nM. In data set [2] (setting [3]), the EC50 was 24 nM.

With `COCCS(=O)(=O)N[C@H]1CC[C@H](C2=C(C(=O)OC)C(c3ccc(F)cc3Cl)N=C(c3nccs3)N2)CC1` (single isomer, unassigned) [Compound 182A, (trans)Methyl 4-(2-chloro-4-fluorophenyl)-6-(4-(2-methoxyethylsulfonamido)cyclohexyl)-2-(thiazol-2-yl)-1,4-dihydropyrimidine-5-carboxylate], in data set [1], half-maximal cytotoxicity (CC50 at 6 days) was put at 33600 nM. In addition, the concentration giving a half-maximal response (EC50) in data set [2] (setting [3]) is 93 nM.

In data set [1], `COC(=O)C1=C(C2CCN(S(=O)(=O)CCO)CC2)NC(c2nccs2)=NC1c1ccc(F)cc1Cl` (single isomer, unassigned) [Compound 185B, Methyl 4-(2-chloro-4-fluorophenyl)-6-(1-((2-hydroxyethyl)sulfonyl)piperidin-4-yl)-2-(thiazol-2-yl)-1,4-dihydropyrimidine-5-carboxylate] displayed a 50% cytotoxic concentration (CC50) at 6 days of 26200 nM. In addition, the EC50 in data set [2] (setting [3]) came out at 18 nM.

As to `CCCS(=O)(=O)N[C@H]1CC[C@H](C2=C(C(=O)OC)C(c3ccc(F)cc3Cl)N=C(c3nccs3)N2)CC1` (single isomer, unassigned) [Compound 186A, (trans)-Methyl 4-(2-chloro-4-fluorophenyl)-6-(4-(propyl-sulfonamido)cyclohexyl)-2-(thiazol-2-yl)-1,4-dihydropyrimidine-5-carboxylate], in data set [1], the CC50 at 6 days came to 83100 nM. Also, the half-maximal effective concentration (EC50) in data set [2] (setting [3]) is 97 nM.

The compound `COC(=O)C1=C([C@H]2C[C@H](NS(C)(=O)=O)C2)NC(c2nccs2)=NC1c1ccc(F)cc1Cl` (single isomer, unassigned) [Compound 206B, (trans)-Methyl 4-(2-chloro-4-fluorophenyl)-6-(3-(methylsulfonamido)cyclobutyl)-2-(thiazol-2-yl)-1,4-dihydropyrimidine-5-carboxylate] came in with a CC50 at 6 days in data set [1] of 26100 nM. Moreover, the EC50 in data set [2] (setting [3]) was determined as 108 nM.

Turning to `COC(=O)C1=C([C@H]2C[C@@H](NS(C)(=O)=O)C2)NC(c2nccs2)=NC1c1ccc(F)cc1Cl` (single isomer, unassigned) [Compound 206D, (cis)-Methyl 4-(2-chloro-4-fluorophenyl)-6-(3-(methylsulfonamido)cyclobutyl)-2-(thiazol-2-yl)-1,4-dihydropyrimidine-5-carboxylate], in data set [1], the CC50 at 6 days came out at 39200 nM. Besides, the EC50 in data set [2] (setting [3]) was 389 nM.

For `COC(=O)C1=C(C2CCN(C)C2)NC(c2nccs2)=NC1c1ccc(F)cc1Cl` (single isomer, unassigned) [Compound 207C, methyl 4-(2-chloro-4-fluorophenyl)-6-(−1-methylpyrrolidin-3-yl)-2-(thiazol-2-yl)-1,4-dihydropyrimidine-5-carboxylate], in data set [1], the CC50 at 6 days was greater than 20000 nM. The EC50 in data set [2] (setting [3]) stood at 753 nM.

The compound `COC(=O)C1=C(C2CCN(S(=O)(=O)CC(=O)O)C2)NC(c2nccs2)=NC1c1ccc(F)cc1Cl` (single isomer, unassigned) [Compound 214A, 2-((−3-(−6-(2-Chloro-4-fluorophenyl)-5-(methoxycarbonyl)-2-(thiazol-2-yl)-3,6-dihydropyrimidin-4-yl)pyrrolidin-1-yl)sulfonyl)acetic Acid] gave a cytotoxic concentration (CC50) at 6 days in data set [1] greater than 100000 nM. Further, the EC50 in data set [2] worked out at 196 nM.

As for `COC(=O)C1=C(C2CCN(S(=O)(=O)[C@H]3C[C@H](C(=O)O)C3)CC2)NC(c2nccs2)=NC1c1ccc(F)c(F)c1Cl` (single isomer, unassigned) [Compound 232B, (trans)-3-((4-(6-(2-Chloro-3,4-difluorophenyl)-5-(methoxycarbonyl)-2-(thiazol-2-yl)-3,6-dihydropyrimidin-4-yl)piperidin-1-yl)sulfonyl)cyclobutanecarboxylic Acid], it took 60000 nM to reach half-maximal cytotoxicity in data set [1] (CC50 at 6 days). For the same compound, the EC50 in data set [2] (setting [3]) amounted to 57 nM.

`COC(=O)C1=C([C@H]2CC[C@@H](S(=O)(=O)N(C)C)CC2)NC(c2nccs2)=NC1c1ccc(F)c(F)c1Cl` (single isomer, unassigned) [Compound 233B, (cis)-Methyl 4-(2-chloro-3,4-difluorophenyl)-6-(4-(N,N-dimethylsulfamoyl)cyclohexyl)-2-(thiazol-2-yl)-1,4-dihydropyrimidine-5-carboxylate] yielded a half-maximal cytotoxic concentration (CC50) at 6 days in data set [1] of 6300 nM. Further, the EC50 in data set [2] (setting [3]) was 56 nM.

`COC(=O)C1=C([C@H]2CC[C@H](S(=O)(=O)N(C)C)CC2)NC(c2nccs2)=NC1c1ccc(F)c(F)c1Cl` (single isomer, unassigned) [Compound 233C, (trans)-methyl 4-(2-chloro-3,4-difluorophenyl)-6-(4-(N,N-dimethylsulfamoyl)cyclohexyl)-2-(thiazol-2-yl)-1,4-dihydropyrimidine-5-carboxylate]: in data set [1], the midpoint of cytotoxicity, the CC50 at 6 days, lay at 5600 nM. In addition, in data set [2] (setting [3]), the EC50 was 13 nM.

By CC50 is commonly meant the concentration at which the toxic effect on the cells reaches its halfway point. Low readings indicate harm at low concentration, high ones better tolerance by the cells. As usually defined, the EC50 is the concentration that produces a half-maximal response.

The record behind these values is US11639350B2, “Heteroaryldihydropyrimidine derivatives and methods of treating hepatitis B infections” (Janssen Pharmaceutica NV, priority 2018, dated 2023).
